Experimental data from US20090137517A1, “SENSITIZING A CELL TO CANCER TREATMENT BY MODULATING THE ACTIVITY OF A NUCLEIC ACID ENCODING RPS27L PROTEIN” (Agency for Science, Technology and Research, priority 2006, published 2009).

Assays:
Type in all cases: cell-based, human
[1] = test system: HCT116 cells; experiment: Cell cycle and apoptosis analysis by flow cytometry (sub-G1 DNA content)
Procedure: (§1) Cells cycle analysis was performed by DNA content quantification. The cells were fixed with 70% ethanol and stained with propidium iodide (50 μg/ml) staining. The stained cells were analyzed by FACScalibur (BD Bioscience). For the BrdU incorporation assay and mitochondrial membrane potential detection, the BrdU Flow Kit and JC-1 staining kit (both from BD Bioscience) were used, respectively, following the instruction manual. Stained cells were analyzed by FACScalibur (BD Bioscience) and quantified by using CellQuest software (BD Bioscience).

[2] = test system: RPS27L protein; experiment: Western blot of RPS27L protein in U2OS, SH-SY5Y and Saos-2 cells; settings: U2OS and SH-SY5Y (p53 wild type), Saos-2 (p53-deficient); VP16 (10 μM), ADR (1 μM), 5-FU (375 μM)
Procedure: (§2) To investigate whether the p53-induced increase in RPS27L mRNA also gives rise to the increased protein levels, immunoblot analysis of p53 wild-type and p53 null HCT116 cells treated with ADR, 5-FU or nutlin-3, a small molecule MDM2 antagonist that directly activates p53 (Vassilev, L. T., Vu, B. T., et al. (2004) “In vivo activation of the p53 pathway by small-molecule antagonists of MDM2” Science, vol. 303, p. 844-848) was performed. […] To extend this observations to other cell lines and to other p53 stimuli, U2OS (human osteosarcoma cell line) and SH-SY5Y (human neuroblastoma cell line) cells (p53 wild type) as well as Saos-2 cells (human osteosarcoma cell line, p53-deficient) were treated with ADR, etoposide phosphate (VP16®) and 5-FU (FIG. 2B). […] Obviously, 5-FU treatment activates a posttranslational mechanism that causes RPS27L protein downregulation in spite of the increased mRNA expression.
(§3) Cells were harvested and lysed with RIPA buffer (50 mM Tris-HCl, pH7.4, 1 mM EDTA, 150 mM NaCl, 1% Nonidet P-40, 0.5% sodium deoxycholate and proteinase inhibitors). The lysates were clarified by centrifugation at 16,000×g for 15 minutes at 4° C. Protein concentrations were determined with the Bradford Protein Assay Kit (Bio-Rad). 20-50 μg protein samples were separated by SDS-PAGE, transferred onto an Immobilon membrane (Millipore) and blotted with antibodies. Anti-p53 and anti-p21 antibodies were from Santa Cruz; anti-MDM2 and anti-Puma antibodies were from Merck. The rabbit polyconal antibody to RPS27L was raised against a 14 amino acid peptide from human RPS27L (SEQ ID NO: 2: LHPSLEEEKKKHKK).

[3] = test system: RPS27L mRNA; experiment: RT-PCR of RPS27L mRNA after drug treatment of HCT116 cells; settings: p53 wild-type HCT116 cells; ADR (1 μM) or 5-FU (375 μM); not in p53 null cells
From the text: FIG. 1A depicts the microarray analysis showing a set of genes whose expression was induced by the DNA damaging agents adriamycin (ADR) and 5-fluorouracil (5-FU) in p53 wild-type HCT116 cells (human colorectal carcinoma cell line containing wild type p53) but not in the p53 null counterpart. In both treatments, RPS27L, together with bona fide p53 targets such as cdkn1a (encodes p21), Pmaid (encodes Noxa) and ccd3 (encodes Puma), was unregulated in a p53-dependent manner. To validate the microarray data, RT-PCR analysis was performed (FIG. 1B).
The human colon carcinoma cell line HCT116 and its p53 knock-out derivate cells were kindly provided by Dr. Bert Vogelstein. HCT116 cells can also be purchased under the ATCC number: CCL 247. The human osteosarcoma cell lines U2OS and Saos-2 can be purchased under the following ATCC numbers: U2OS, ATCC HTB-96; Saos-2, ATCC HTB-85 and SH-SY5Y, ATCC CRL-2266. Cells were grown in DMEM supplemented with 10% fetal bovine serum and penicillin-streptomycin (Invitrogen). Adriamycin, etoposide phosphate (VP16®) and 5-fluorouracil were purchased from Sigma-Aldrich.
(§4) All RT-PCR was performed using the Titanium One Step RT-PCR Kit (BD Clontech).

[4] = test system: p53 and p21; experiment: Western blot of p53 and p21 protein levels in HCT116 cells; settings: ADR (1 μM), 5-FU (375 μM), nutlin-3 (10 μM)
Procedure: as §2, §3

[5] = test system: RPS27L protein; experiment: Western blot of RPS27L protein levels in HCT116 cells; settings: ADR (1 μM), 5-FU (375 μM), nutlin-3 (10 μM)
Procedure: as §2, §3

[6] = test system: HCT116 cells; experiment: γ-H2AX focus formation, immunofluorescence and confocal microscopy
Procedure: A deficient DNA damage checkpoint is expected to increase DNA damage. γ-H2AX foci are considered to be sensitive indicators of double strand breaks (DSB). We looked for γ-H2AX focus formation after etoposide phosphate (VP16®) treatment and monitored the reversibility post-VP16 washout.
The cells were seeded in 4-well or 8-well culture slides. After treatment, cells were fixed with 3.7% paraformaldehyde in PBS and permeabilized with 0.2% Triton-X100. Cells were sequentially incubated with primary antibodies (see above under “Protein Analysis and Generation of Anti-RPS27L Antibody”) and Alexa Fluor 488 or Alexa Fluor 546-conjugated secondary antibodies (Invitrogen) for 1 hour each and mounted in Fluorsave (Merck) mounting medium. DRAQ5 (Biostats, UK) was diluted in mounting medium for nuclear staining. The stained cells were examined by Zeiss LSM510 confocal microscopy.

[7] = test system: HCT116 cells; experiment: JC-1 staining, mitochondrial membrane potential by flow cytometry; settings: RPS27L shRNA HCT116 cells, ADR treatment
Procedure: To further define the nature of this cell death response the inventors used another assay, namely flow cytometric detection of cells stained with JC-1. The JC-1-staining identifies cell death events as a result of loss of mitochondria membrane potential (ΔΨm).
as §1

[8] = test system: RPS27; experiment: Specificity of RPS27L siRNA, RT-PCR of RPS27; settings: HCT116 cells transfected with siRNA, then VP16 (10 μM)
Procedure: (§5) The siRNA oligo targeting RPS27L (SEQ ID NO: 1: ggttgctacaagattacta was purchased from Proligo, and transfection was conducted using Lipofectamine 2000 (Invitrogen) according to the manufacturer's information. To generate stable knock-down cell lines, the siRNA sequences were cloned into the pSIREN-RetroQ retroviral expression vector (BD Bioscience) according to the manufacturer's instruction. Virally infected cells were selected in a medium containing 2 μg/ml puromycin and individual drug-resistant clones were collected, pooled and expanded.
as §4

[9] = test system: RPS27L; experiment: RPS27L gene silencing by RNA interference, RT-PCR; settings: HCT116 cells transfected with siRNA, then VP16 (10 μM)
Procedure: as §5, §4

Q: Which “cell cycle and apoptosis response” value ([1]; HCT116 p53+/+ and p53−/−, ADR (1 μM) or 5-FU (375 μM) for 48 h) does the source give for `O=c1[nH]cc(F)c(=O)[nH]1` [5-FU, 5-fluorouracil] here?
A: p53-dependent apoptosis

Q: And the RPS27L protein level [2]?
A: downregulation

Q: And the “RPS27L mRNA” value [3]?
A: induced

Q: What about the “p53 and p21 protein” value [4] of the same compound?
A: increased p21 protein expression

Q: And the RPS27L protein level [5]?
A: downregulated

Q: With `COc1cc([C@@H]2c3cc4c(cc3[C@@H](O[C@@H]3O[C@@H]5CO[C@@H](C)O[C@H]5[C@H](O)[C@H]3O)[C@H]3COC(=O)[C@H]23)OCO4)cc(OC)c1OP(=O)(O)O` [etoposide phosphate (VP16®), etoposide phosphate] as the compound, how does the RPS27L protein level [2] read?
A: p53-dependent upregulation of RPS27L protein

Q: And the “DSB foci (γ-H2AX staining) after treatment” value ([6]; HCT116 cells, VP16 (20 μM))?
A: prominent DSB foci

Q: And the “γ-H2AX staining after VP16 removal” value ([6]; RPS27L-depleted HCT116 cells, after VP16 removal)?
A: sustained γ-H2AX staining

Q: What about the “γ-H2AX staining after VP16 removal” value ([6]; control HCT116 cells, by 16 hours after VP16 removal) of the same compound?
A: almost undetectable

Q: Which “p53 and p21 protein” value [4] does the source give for `COc1ccc(C2=N[C@@H](c3ccc(Cl)cc3)[C@@H](c3ccc(Cl)cc3)N2C(=O)N2CCNC(=O)C2)c(OC(C)C)c1` [nutlin-3] here?
A: accumulation of p53 and p21

Q: And the RPS27L protein level [5]?
A: increased RPS27L protein levels

Q: “RPS27L shRNA: short hairpin of SEQ ID NO: 1 to deplete RPS27L, stably expressed in HCT116 from pSIREN-RetroQ retroviral vector (guide GGTTGCTACAAGATTACTA)” was tested. Which “cell death (sub-G1 DNA content)” value ([1]; p53 wild-type HCT116 stably expressing RPS27L shRNA, ADR (1 μM) 48 h) did it give?
A: marked cell death

Q: And the “percentage of cells with lower membrane potential (ΔΨm)” value [7]?
A: 33.5%

Q: Which results are given for “RPS27L siRNA: siRNA oligo targeting RPS27L, SEQ ID NO: 1: ggttgctacaagattacta, purchased from Proligo (GGTTGCTACAAGATTACTA; listed as DNA, chemistry not given here)”?
A: effect on closely-related RPS27 (mRNA) [8]: no effect; cell death (sub-G1 DNA content) ([1]; HCT116 cells, transient siRNA transfection, then ADR (1 μM) 24 h): marked increase in cell death; cell death (sub-G1 DNA content) ([1]; HCT116 cells, transient siRNA transfection, then etoposide phosphate (VP16) (10 μM) 24 h): marked increase in cell death; cell death (sub-G1 DNA content) ([1]; p53 null HCT116 cells, transient siRNA transfection, then ADR or VP16): not in p53 null counterparts; RPS27L expression (mRNA) [9]: nearly completely ablated
